Laboratory results: patent US10899790B2, “Method for modifying T cell population” (OSAKA UNIVERSITY, priority 2016, dated 2021)
Entries after “also recorded” stand apart in the source; their conditions may differ.

Columns and labels:
[1] = target: T1, Retinol Dehydrogenase 10 (RDH10) (Homo sapiens, UniProt Q8IZV5); assay: Inhibition of RDH10 enzyme activity (microsomal fraction of RDH10-expressed 293T, all-trans retinol to all-trans retinal, HPLC); assay type: biochemical; conditions: final concentration of 20 μM; relative to DMSO control (FIG. 1)
T1 construct: expressed in transfected cells; host or cells: 293T (microsomal fraction)
T1 sequence (Q8IZV5 1-341): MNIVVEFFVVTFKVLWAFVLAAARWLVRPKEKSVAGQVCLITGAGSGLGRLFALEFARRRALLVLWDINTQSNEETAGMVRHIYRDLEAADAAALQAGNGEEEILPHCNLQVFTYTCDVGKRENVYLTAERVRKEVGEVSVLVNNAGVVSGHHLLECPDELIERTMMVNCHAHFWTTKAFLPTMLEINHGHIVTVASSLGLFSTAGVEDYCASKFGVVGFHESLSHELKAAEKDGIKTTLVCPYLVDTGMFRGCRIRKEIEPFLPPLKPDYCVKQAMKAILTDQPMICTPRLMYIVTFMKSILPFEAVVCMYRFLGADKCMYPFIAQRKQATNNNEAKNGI
Description: All-trans retinol, BSA, and NAD (nicotinamide adenine dinucleotide) as a coenzyme were added to a buffer for reaction (90 mM potassium phosphate buffer, pH7.4, 40 mM KCl) so as to have final concentrations of 10 μM, 10 μM, and 1 mM respectively. This mixture was taken in siliconized tubes by 200 μl for each, the microsomal fractions separated from 293T and RDH10-expressed 293T were added to separate tubes by 10 μl for each, and the mixtures were allowed to react at 37° C. for 15 minutes. After 200 μl of methanol was added to the reaction mixtures to stop the reaction, retinoid was extracted using hexane and concentrated. The concentrated retinoid was dissolved in 150 μl of acetonitrile, separated by HPLC, and subjected to the detection of ultraviolet light absorption at a wavelength of 350 nm, whereby the substrate (all-trans retinol) and the product (all-trans retinal) were detected. In addition, standard samples (all-trans retinol and all-trans retinal) were separated by HPLC and the retention times of the respective standard samples were determined in advance. The solvent for HPLC was acetonitrile: 50 mM ammonium acetate=75:25. As the separation column, Syhergi 4 μm Hydro-RP 80A (manufactured by Phenomenex) was used. In addition, the flow rate was 2.0 ml/min. The RDH10 enzyme activity was calculated by reading the amount of product per fixed time from the chart of HPLC.
All-trans retinol, BSA, and NAD (nicotinamide adenine dinucleotide) as a coenzyme were added to a buffer for reaction (90 mM potassium phosphate buffer, pH7.4, 40 mM KCl) so as to have final concentrations of 10 μM, 10 μM, and 1 mM respectively. This mixture was taken in siliconized tubes by 200 μl for each, the microsomal fraction separated from RDH10-expressed 293T was added to separate tubes by 10 μl for each. The RDH10 inhibitor dissolved in DMSO was added to each tube so as to have a final concentration of 20 μM, and the same amount of DMSO was added to the control tube. The mixture was allowed to react at 37° C. for 15 to 30 minutes, 200 μl of methanol was added to the reaction mixtures, and then retinoid was extracted using hexane and concentrated. The concentrated retinoid was dissolved in 150 μl of acetonitrile, separated by HPLC, and subjected to the detection of ultraviolet light absorption at a wavelength of 350 nm, whereby the substrate (all-trans retinol) and the product (all-trans retinal) were detected. In addition, standard samples (all-trans retinol and all-trans retinal) were separated by HPLC and the retention times of the respective standard samples were determined in advance. The solvent for HPLC was acetonitrile: 50 mM ammonium acetate=75:25. As the separation column, Syhergi 4 μm Hydro-RP 80A (manufactured by Phenomenex) was used. The flow rate was 2.0 ml/min.
The enzyme activity was determined by the waveform area of the product (all-trans retinal) with respective to the waveform area of the non-reacted substrate (all-trans retinol), and the relative value with respect to the enzyme activity in the control is illustrated in FIG. 1. The error bars indicate SD (standard deviation).

[2] = system: mouse cancer cell line EG7 expressing OVA; assay: Effect in vivo: EG7 tumor-bearing B6 mice with transferred OT-1 cells; parameters: species or system C57BL/6J mouse
Source text: A mouse cancer cell line EG7 (2×10^6) expressing OVA (chicken ovalbumin) was subcutaneously injected into C57BL/6J mouse (B6 mouse) to form a tumor. Five days later, the mouse in which a tumor was formed was irradiated with radiation at 3 Gy, then T cell-receptive OTCD8^+T cells (OT-1 cells) specific for OVA antigen were isolated from CD45.1 positive OT-I transgenic mouse, and this was transferred into the mouse by 2×10^5 through the tail vein. A total of 3 times every other day from the next day, RDH10 inhibitors (Compound No. 1 (RDHI-012) and Compound No. 2 (RDHI-013)) were administered to the mouse at 100 μg/mouse for each through the tail vein. The RDH10 inhibitors were administered to the mouse by being previously stocked in DMSO at 100 μg/50 μl and adjusted to have a total volume of 200 μl by the addition of 150 μl of PBS.
In the experiment, tumor volumes were measured over time. The frequency of OT-1 cells (OVA specific CD8^+T cells) in peripheral blood on the 20th day was measured. Furthermore, the expression intensity of cell surface antigen molecules (CD62L, CD127), which were markers of memory T cells, was analyzed.
The time course in the mean value of tumor volume after tumor transplantation is illustrated in FIG. 4. The error bars indicate the standard error. The tumor volume was determined by major axis×minor axis×height/2.
On the 20th day after the tumor transplantation, the frequency of transferred OT-I cells contained in peripheral blood was analyzed by flow cytometry. OT-I cells were CD45.1 positive and thus were clearly distinguishable from the host B6 mouse (CD45.2 positive)-derived T cells. The representative results are illustrated in FIG. 5.
The expression intensities of CD62L and CD127 in OT-I cells illustrated in FIG. 5 were analyzed by flow cytometry. The mean value and standard error of each expression intensity are illustrated in FIG. 6.

[3] = system: Healthy human-derived CD4+CD45RO+T cells; assay: Effect in vitro: CD62L and CD127 expression in cultured T cells by flow cytometry; assay type: cell-based; conditions: 20 μM; anti-CD3, anti-CD28, IL-2; vs DMSO control (FIG. 2)
Description: Healthy human-derived CD4^+CD45RO^+T cells (1×10^5) were cultured in the presence of anti-CD3 antibody (2 μg/ml), anti-CD28 antibody (2 μg/ml), IL-2 (20 IU/ml) and RDH10 inhibitors (Compound No. 16 (RDHI-032), Compound No. 17 (RDHI-033), and Compound No. 18 (RDHI-034)) (20 μM for each). In addition, DMSO was used as a control for the RDH10 inhibitor. After seven days […] resuspended in a fresh culture medium to which IL-2 was not added, and cultured for one more day. Thereafter, the expression of CD62L and CD127 in T cells was analyzed by flow cytometry. The culture solution used was X-VIVO15 to which AB serum was added to have a final concentration of 10%.

| RDH10 enzyme activity inhibitory action [1] | Compound | frequency of CD45.1+OT-1 cells (OVA specific CD8+ cells) in peripheral blood ([2]; 100 μg/mouse tail vein, 20th day after tumor transplantation (FIG. 5)) | expression of CD62L and CD127 in CD45.1+OT-1 cells ([2]; 100 μg/mouse tail vein, 20th day, flow cytometry (FIG. 6)) | proliferation of tumor in vivo ([2]; 100 μg/mouse through the tail vein, 3 times every other day) | tumor volume ([2]; 100 μg/mouse through the tail vein, 3 times every other day, 21st day after transplantation (FIG. 4)) | amplification of memory T cells (CD62L+CD127+T cells) [3] | effector T cells (CD62L−CD127−T cells) [3] |
| --- | --- | --- | --- | --- | --- | --- | --- |
| relatively potent | CC1(C)C(N)CC[C@]2(C)[C@H]3C(=O)C=C4[C@@H]5C[C@@](C)(C(N)=O)CC[C@]5(C)CC[C@@]4(C)[C@]3(C)CC[C@@H]12 (stereo partly drawn) [Compound No. 16, (2S,4aS,6aS,6bR,8aR,12aS,12bR,14bR)-10-amino-2,4a,6a,6b,9,9,12a-heptamethyl-13-oxo-1,2,3,4,4a,5,6,6a,6b,7,8,8a,9,10,11,12,12a,12b,13,14b-icosahydropicene-2-carboxamide] | – | – | – | – | amplified memory T cells | decreased |
| relatively potent | COC(=O)[C@@]1(C)CC[C@]2(C)CC[C@]3(C)C(=CC(=O)[C@@H]4[C@@]5(C)CCC(NC(=O)/C=C\C(=O)O)C(C)(C)[C@@H]5CC[C@]43C)[C@H]2C1 (stereo partly drawn) [Compound No. 5, (Z)-4-((4aR,6aR,6bS,8aS,11S,12aS,14aR,14bS)-11-(methoxycarbonyl)-4,4,6a,6b,8a,11,14b-heptamethyl-14-oxo-1,2,3,4,4a,5,6,6a,6b,7,8,8a,9,10,11,12,12a,14,14a,14b-icosahydropicen-3-ylamino)-4-oxobut-2-enoic acid] | – | – | – | – | tended to amplify memory cells | – |
| relatively potent | CC(=O)NC1CC[C@]2(C)[C@H]3C(=O)C=C4[C@@H]5C[C@@](C)(C(N)=O)CC[C@]5(C)CC[C@@]4(C)[C@]3(C)CC[C@H]2C1(C)C (stereo partly drawn) [Compound No. 17, (2S,4aS,6aS,6bR,8aR,12aS,12bR,14bR)-10-acetamido-2,4a,6a,6b,9,9,12a-heptamethyl-13-oxo-1,2,3,4,4a,5,6,6a,6b,7,8,8a,9,10,11,12,12a,12b,13,14b-icosahydropicene-2-carboxamide] | – | – | – | – | amplified memory T cells | decreased |
| relatively potent | CC1(C)C(NC(=O)c2ccccc2)CC[C@]2(C)[C@H]3C(=O)C=C4[C@@H]5C[C@@](C)(C(N)=O)CC[C@]5(C)CC[C@@]4(C)[C@]3(C)CC[C@@H]12 (stereo partly drawn) [Compound No. 18, (2S,4aS,6aS,6bR,8aR,12aS,12bR,14bR)-10-benzamide-2,4a,6a,6b,9,9,12a-heptamethyl-13-oxo-1,2,3,4,4a,5,6,6a,6b,7,8,8a,9,10,11,12,12a,12b,13,14b-icosahydropicene-2-carboxamide] | – | – | – | – | amplified memory T cells | decreased |

| Compound | RDH10 enzyme activity inhibitory action [1] | frequency of CD45.1+OT-1 cells (OVA specific CD8+ cells) in peripheral blood ([2]; 100 μg/mouse tail vein, 20th day after tumor transplantation (FIG. 5)) | expression of CD62L and CD127 in CD45.1+OT-1 cells ([2]; 100 μg/mouse tail vein, 20th day, flow cytometry (FIG. 6)) | proliferation of tumor in vivo ([2]; 100 μg/mouse through the tail vein, 3 times every other day) | tumor volume ([2]; 100 μg/mouse through the tail vein, 3 times every other day, 21st day after transplantation (FIG. 4)) | amplification of memory T cells (CD62L+CD127+T cells) [3] | effector T cells (CD62L−CD127−T cells) [3] |
| --- | --- | --- | --- | --- | --- | --- | --- |
| COC(=O)[C@@]1(C)CC[C@]2(C)CC[C@]3(C)C(=CC(=O)[C@@H]4[C@@]5(C)CCC(N)C(C)(C)[C@@H]5CC[C@]43C)[C@@H]2C1 (stereo partly drawn) [Compound No. 2, (2S,4aS,6aS,6bR,8aR,12aS,12bR,14bR)-methyl 10-amino-2,4a,6a,6b,9,9,12a-heptamethyl-13-oxo-1,2,3,4,4a,5,6,6a,6b,7,8,8a,9,10,11,12,12a,12b,13,14b-icosahydropicene-2-carboxylate] | relatively potent; also recorded: potent RDH10 enzyme activity inhibitory action | amplify CD45.1^+OT-1 cells | accelerate the expression of CD62L and CD127 | suppress the proliferation of tumor in vivo | decreased to one several tenths to one several hundredths | – | – |
| COC(=O)[C@@]1(C)CC[C@]2(C)CC[C@]3(C)C(=CC(=O)[C@@H]4[C@@]5(C)CCC(NC(=O)N6CCOCC6)C(C)(C)[C@@H]5CC[C@]43C)[C@H]2C1 (stereo partly drawn) [Compound No. 22, (2S,4aS,6aS,6bR,8aR,12aS,12bR,14bS)-methyl 2,4a,6a,6b,9,9,12a-heptamethyl-10-(morpholine-4-carboxamido)-13-oxo-1,2,3,4,4a,5,6,6a,6b,7,8,8a,9,10,11,12,12a,12b,13,14b-icosahydropicene-2-carboxylate] | exhibited the RDH10 enzyme activity inhibitory action | – | – | – | – | tended to amplify memory cells | – |
| COC(=O)[C@@]1(C)CC[C@]2(C)CC[C@]3(C)C(=CC(=O)[C@@H]4[C@@]5(C)CCC(NC(=O)N6CCOCC6)C(C)(C)[C@@H]5CC[C@]43C)[C@@H]2C1 (stereo partly drawn) [Compound No. 23, (2S,4aS,6aS,6bR,8aR,12aS,12bR,14bR)-methyl 2,4a,6a,6b,9,9,12a-heptamethyl-10-(morpholine-4-carboxamido)-13-oxo-1,2,3,4,4a,5,6,6a,6b,7,8,8a,9,10,11,12,12a,12b,13,14b-icosahydropicene-2-carboxylate] | exhibited the RDH10 enzyme activity inhibitory action | – | – | – | – | tended to amplify memory cells | – |
